Test results from PMC9322071, “Computer-Aided Design and Synthesis of (Functionalized quinazoline)–(α-substituted coumarin)–arylsulfonate Conjugates against Chikungunya Virus” (International Journal of Molecular Sciences, 2022).
Where two headings read alike, the source gives them in different places.

Assays:
[1] = Cytotoxicity assay (metabolic activity of compound-treated cells); settings: African green monkey
[2] = Lipophilicity by shake-flask method
[3] = tested on: CHIKV Indian Ocean strain 899; experiment: Anti-CHIKV CPE assay on Vero cells; settings: for EC50: Chikungunya virus, Vero; for SI: ratio of CC50 to EC50
CHIKV [4] = tested on: CHIKV; design: method as in PMID 23275491; settings: CHIKV inhibition; cited from earlier work
[5] = cited from earlier work
CHIKV isolate = CHIKV isolate replication; cited from earlier work
CHIKV [6] = settings: cited from earlier work

| SMILES | CC50 [1] [µM] | logP [2] | EC50 [3] [µM] | SI [3] | also measured |
| --- | --- | --- | --- | --- | --- |
| O=c1oc2cc(OS(=O)(=O)c3ccccc3)ccc2cc1CSc1nc(Nc2ccccc2)c2ccccc2n1 [Compound 2b, 2′-Oxo-3′-[([4-(phenylamino)quinazolin-2-yl]thio)methyl]-2H-chromen-7′-yl Benzenesulfonate] | 72.3 | 5.27 | 3.84 | 18.8 | fold more potent than quinazolinone conjugate 10a ([3]; EC50 comparison 2b vs 10a): 2.0 times; fold improvement of SI in comparison with 10a ([3]; SI comparison 2b vs 10a): 3.68 times |
| O=c1oc2cc(OS(=O)(=O)c3ccccc3)ccc2cc1CSc1nc2ccccc2c(=O)[nH]1 [Compound 10a, 2′-Oxo-3′-([(4-oxo-3,4-dihydroquinazolin-2-yl)thio]methyl)-2H-chromen-7′-yl Benzenesulfonate] | 40.1 | 3.52 | 7.84 | 5.11 |  |
| COc1ccc(S(=O)(=O)Oc2ccc3cc(CSc4nc5ccccc5c(=O)[nH]4)c(=O)oc3c2)cc1 [Compound 10b, 2′-Oxo-3′-([(4-oxo-3,4-dihydroquinazolin-2-yl)thio]methyl)-2H-chromen-7′-yl 4″-Methoxybenzenesulfonate] |  | 3.45 | > 186 |  |  |
| O=c1oc2cc(OS(=O)(=O)c3ccc(F)cc3)ccc2cc1CSc1nc2ccccc2c(=O)[nH]1 [Compound 10c, 2′-Oxo-3′-([(4-oxo-3,4-dihydroquinazolin-2-yl)thio]methyl)-2H-chromen-7′-yl 4″-Fluorobenzenesulfonate] | 59.7 | 3.68 | 6.46 | 9.24 | fold more potent against CHIKV than β-substituted isomer 11 ([3]; EC50 comparison 10c vs 11): ~ 3 times; fold improvement of SI in comparison with β-11 ([3]; SI comparison 10c vs 11): 5.7 times |
| O=c1oc2cc(OS(=O)(=O)c3ccc(Br)cc3)ccc2cc1CSc1nc2ccccc2c(=O)[nH]1 [Compound 10d, 2′-Oxo-3′-([(4-oxo-3,4-dihydroquinazolin-2-yl)thio]methyl)-2H-chromen-7′-yl 4″-Bromobenzenesulfonate] | 62.6 | 3.94 | 18.4 | 3.40 |  |
| O=c1oc2cc(OS(=O)(=O)c3ccccc3[N+](=O)[O-])ccc2cc1CSc1nc2ccccc2c(=O)[nH]1 [Compound 10e, 2′-Oxo-3′-([(4-oxo-3,4-dihydroquinazolin-2-yl)thio]methyl)-2H-chromen-7′-yl 2″-Nitrobenzenesulfonate] | 64.3 | 3.48 | 12.7 | 5.06 |  |
| O=c1oc2cc(OS(=O)(=O)c3ccc([N+](=O)[O-])cc3)ccc2cc1CSc1nc2ccccc2c(=O)[nH]1 [Compound 10f, 2′-Oxo-3′-([(4-oxo-3,4-dihydroquinazolin-2-yl)thio]methyl)-2H-chromen-7′-yl 4″-Nitrobenzenesulfonate] |  | 3.43 | > 186 |  |  |
| COC(=O)C[C@](O)(CCC(C)(C)O)C(=O)O[C@@H]1C(OC)=C[C@]23CCCN2CCc2cc4c(cc2[C@H]13)OCO4 [Harringtonine, harringtonine] |  |  |  |  | EC50 (CHIKV [4]): 0.24 µM |
| Cc1ccc(C(=O)Nc2ccc(S(=O)(=O)O)c3cc(S(=O)(=O)O)cc(S(=O)(=O)O)c23)cc1NC(=O)c1cccc(NC(=O)Nc2cccc(C(=O)Nc3cc(C(=O)Nc4ccc(S(=O)(=O)O)c5cc(S(=O)(=O)O)cc(S(=O)(=O)O)c45)ccc3C)c2)c1 [Suramin] |  |  |  |  | CC50 [5]: > 5000 µM; EC50 (CHIKV isolate): ~80 µM |
| O=C(NN=Cc1ccccc1)C1CC1 [benzylidene(cyclopropane)carbohydrazide] |  |  |  |  | EC50 (CHIKV [6]; CHIKV-induced CPE): 5 µM; SI (CHIKV [6]): 14 |
